From patent US4062948A, “Dihydromocimycin antibiotics” (Gist-Brocades N.V., priority 1970, dated 1977) come the findings set out here.

Data set [1] deals with Treponema. Nature of the data set: treatment of pigs from a farm with pigs scour, Treponema-positive (Example VII). The format is in vivo. How it is done:
Pigs, from a farm where problems with pigs scour had existed for some time, were treated under the supervision of the local veterinary surgeon and the inspector of the Health Service Station. The pigs were divided into groups and treated for 4 days in the following manner.
Group 1: 66 pigs were treated with feed containing 100 ppm of tylosin;
Group 2: 34 pigs were treated with feed containing 25 ppm of dihydromocimycin;
Group 3: 40 pigs were treated with feed containing 50 ppm of dihydromocimycin; and
Group 4: 40 pigs were treated with feed containing 100 ppm of dihydromocimycin.
Before the treatment, all animals lost thin or very thin faeces. Samples thereof were investigated and found to be Treponema-positive, and Salmonella-negative. Sometimes worm eggs were found.

Data set [2] in a line: growth promotion in slaughter chickens (Example II). It is filed as in vivo. Conditions: feed additive. The source says: Slaughter chickens are given mocimycin in the form of the sodium salt obtained in Example 1, in a mixture with component of the feed (wheat flour), the amount of antibiotic in the feed (based on the weight of the feed) being as specified in the following Table, which gives the weight of the chickens after 3, 5 and 7 weeks.

Regarding `CC=CC=CC1OC(O)(C(CC)C(=O)NCC=CC=C(C)C(OC)C(C)C2OC(C=CC=CC=C(C)C(=O)C3=C(O)CCNC3=O)C(O)C2O)C(O)C(O)C1(C)C` (stereo not shown) [dihydromocimycin], the “liveliness of treated animals” value in data set [1] (25-100 ppm in feed) is on record as “much more lively than before the treatment”. For the same compound, in data set [1] (25 ppm dihydromocimycin vs 100 ppm tylosin), the “curing of Treponema dysentery, compared with tylosin” value is listed as “better than a dosage of 100 ppm of tylosin”. The time to cure result in data set [1] (dihydromocimycin 25 ppm in feed (group 2)) is “cured in periods lying between those of groups 1 and 4”; in data set [1] (dihydromocimycin 50 ppm in feed (group 3)) it was “cured in periods lying between those of groups 1 and 4”. Besides, in data set [1] (dihydromocimycin 100 ppm in feed, one day after the start of treatment), the faeces result is given as “normal”. In data set [1] (feed containing dihydromocimycin), the aversion to feed result is “not averse to feed containing dihydromocimycin”.
On to `CC=CC=CC1OC(O)(C(CC)C(=O)NCC=CC=C(C)C(OC)C(C)C2OC(C=CC=CC=C(C)C(=O)c3c(O)cc[nH]c3=O)C(O)C2O)C(O)C(O)C1(C)C` (stereo not shown) [mocimycin], for which, in data set [2], the “growth of the chickens” value is given as “an increase in growth”.
